pIC50: −log10 of the molar value.
What was measured:
[1] = system: MycCap cells; experiment: Cell viability of MycCap cells; assay type: cell-based; settings: Mus musculus, Myc-CaP
[2] = system: PC12 cells; experiment: Cell viability of PC12 cells; assay type: cell-based; settings: Rattus norvegicus, PC-12; Cell viability of PC12 cells
Protocol: PC3 prostate cancer cell line with high Myc level and PC12 pheochromocytoma tumor cell line with non functional Max protein, which is not dependent on Myc-Max complex, were phased from ATCC. Cells were plated in 96 well plate at 1000 cells per well, and Myc inhibitor 361 at various concentrations was added to the cells next day. After 3 days of treatment, fresh medium with 361 were added again, and cell viability was measured by MTS assay at day 5 after the treatment. (See FIG. 11).

[3] = Stability in mouse liver microsomes; assay type: in vitro ADME; settings: % remaining of compound after 60 min treatment with mouse liver microsomes
Protocol: In vitro metabolism of NUCC-176242 and NUCC-176248 were tested using mouse liver microsomes and a mouse S9 fraction. (See FIG. 9).

Row | SMILES | pIC50 [1] | pIC50 [2] | MLM % at 60 min [3]
1 | Cn1nc(-c2ccc(OCc3ccc(Cl)cc3)c(-c3cc(C(F)(F)F)cc(C(F)(F)F)c3)c2O)cc1C(F)(F)F [NUCC-0196360] | 4.40 | – | –
2 | NC(=O)c1ccc(-c2c(OCc3ccc(Cl)cc3)ccc(-c3cc(C(F)(F)F)[nH]n3)c2O)cc1 [NUCC-0198394] | 5.14 | – | –
3 | CCOC(=O)c1cc(-c2ccc(OCc3ccc(Cl)cc3)c(-c3cc(C(F)(F)F)cc(C(F)(F)F)c3)c2O)n[nH]1 [NUCC-0200972] | 5.29 | 4.09 | 60.3%
4 | Cn1nc(C(F)(F)F)cc1-c1ccc(OCc2ccc(Cl)cc2)c(-c2cncc(C(F)(F)F)c2)c1O [NUCC-0201630] | 4.81 | 4.37 | –
5 | Cn1nc(-c2ccc(OCc3ccc(Cl)cc3)c(-c3cccc(C#N)c3)c2O)cc1C(N)=O [NUCC-0200558] | 4.31 | 4.51 | –
6 | CCCCCCOc1ccc(-c2cc(C(F)(F)F)n[nH]2)c(O)c1-c1cc(C(F)(F)F)cc(C(F)(F)F)c1 [NUCC-0201196] | 5.35 | – | 66.6%
7 | Cc1ccc(-c2c(OCc3ccc(Cl)cc3)ccc(-c3cc(C(F)(F)F)[nH]n3)c2O)cc1 [NUCC-0196344] | 5.18 | – | –
8 | CCCCCCOc1ccc(-c2cc(C(F)(F)F)n(C)n2)c(O)c1-c1cncc(C#N)c1 [NUCC-0201212] | 4.63 | 4.51 | –
9 | Oc1cc(OCc2ccc(Cl)cc2)ccc1-c1n[nH]cc1-c1ccoc1 [NUCC-0198322] | 5.19 | – | –
10 | CCc1ccc(Oc2c(-c3ccc(OCc4cccc(Cl)c4)cc3O)n[nH]c2C(F)(F)F)cc1 [NUCC-0196295] | 4.91 | – | –
11 | CCc1ccc(Oc2c(-c3ccc(OCCc4cccc(C(F)(F)F)c4)cc3O)n[nH]c2C(F)(F)F)cc1 [NUCC-0176245] | 5.39 | – | –
12 | Oc1cc(OCc2ccc(Cl)cc2)ccc1-c1n[nH]cc1-c1cccc(Cl)c1 [NUCC-0196350] | 5.37 | – | –
13 | N#Cc1cccc(-c2c(OCc3ccc(Cl)cc3)ccc(-c3cc(C(F)(F)F)[nH]n3)c2O)c1 [NUCC-0198398] | 5.37 | – | –
14 | COc1ccc(-c2c(-c3ccc(OCc4ccc(Cl)cc4)cc3O)n[nH]c2C(F)(F)F)cc1 [NUCC-0196312] | 5.32 | – | –
15 | CCCCOc1ccc(-c2cc(C(F)(F)F)n(C)n2)c(O)c1-c1ccc(Cl)c(C(F)(F)F)c1 [NUCC-0201227] | 5.35 | 6.00 | –
16 | CCCOc1ccc(-c2cc(C(F)(F)F)n[nH]2)c(O)c1-c1cc(C(F)(F)F)cc(C(F)(F)F)c1 [NUCC-0201197] | 5.47 | 4.73 | –
17 | CCCCOc1ccc(-c2cc(C(F)(F)F)n[nH]2)c(O)c1-c1ccc(Cl)c(C(F)(F)F)c1 [NUCC-0201225] | 4.72 | 4.08 | –
18 | CCCCOc1ccc(-c2cc(C(F)(F)F)nn2C)c(O)c1-c1cncc(C(F)(F)F)c1 [NUCC-0201204] | 4.64 | – | –
19 | Cn1nc(-c2ccc(OCc3ccc(Cl)cc3)c(-c3ccc(F)cc3)c2O)cc1C(F)(F)F [NUCC-0196348] | 3.96 | – | –
20 | COc1ccc(-c2cc(C(F)(F)F)[nH]n2)c(O)c1-c1cc(C(F)(F)F)cc(C(F)(F)F)c1 [NUCC-0201220] | 5.31 | 4.04 | –
21 | Oc1c(-c2cc(C(F)(F)F)n[nH]2)ccc(OCCN2CCCC2)c1-c1cc(C(F)(F)F)cc(C(F)(F)F)c1 [NUCC-0201032] | 6.00 | 4.96 | 30.5%
22 | Cc1cc(C)c(-c2c[nH]nc2-c2ccc(OCc3ccc(Cl)cc3)cc2O)c(C)c1 [NUCC-0198359] | 5.12 | – | –
23 | CCCCCCOc1ccc(-c2cc(C(F)(F)F)nn2C)c(O)c1-c1cncc(C#N)c1 [NUCC-0201207] | 5.24 | – | 52.7%
24 | CCCCCCOc1ccc(-c2cc(C(F)(F)F)nn2C)c(O)c1-c1cncc(C(F)(F)F)c1 [NUCC-0201205] | 5.02 | 4.44 | –
25 | CC(C)CCOc1ccc(-c2cc(C(F)(F)F)nn2C)c(O)c1-c1cncc(C(F)(F)F)c1 [NUCC-0201206] | 5.30 | – | –
26 | Oc1c(-c2cc(C(F)(F)F)[nH]n2)ccc(Oc2ccc(Cl)cc2)c1-c1cc(C(F)(F)F)cc(C(F)(F)F)c1 [NUCC-0201223] | 5.29 | 4.39 | 75.8%
27 | CC(C)CCOc1ccc(-c2cc(C(F)(F)F)n[nH]2)c(O)c1-c1cncc(C#N)c1 [NUCC-0201195] | 4.83 | 4.15 | –

Row | SMILES | pIC50 [1] | pIC50 [2] | MLM % at 60 min [3]
28 | Cn1nc(C(F)(F)F)cc1-c1ccc(OCc2ccc(Cl)cc2)cc1C=O [NUCC-0200976] | 5.41 | 4.20 | 21.8%
29 | CCCCOc1ccc(-c2cc(C(F)(F)F)n(C)n2)c(O)c1-c1cncc(C(F)(F)F)c1 [NUCC-0201209] | 5.36 | – | 10.3%
30 | O=C1CCC(N2C(=O)c3cccc(OCc4cn(CCOCCOCCOCC(=O)Nc5ccc(COc6ccc(-c7cc(C(F)(F)F)n[nH]7)c(O)c6-c6cc(C(F)(F)F)cc(C(F)(F)F)c6)cc5)nn4)c3C2=O)C(=O)N1 (centres unmarked) [NUCC-0201202] | 5.40 | 4.64 | –
31 | CC(CCOc1ccc(-c2cc(C(F)(F)F)n[nH]2)c(O)c1-c1cc(C(F)(F)F)cc(C(F)(F)F)c1)C(F)(F)F (centres unmarked) [NUCC-0201198] | 5.59 | 5.09 | –
32 | COc1ccc(-c2cc(C(F)(F)F)n(C)n2)c(O)c1-c1cc(C(F)(F)F)cc(C(F)(F)F)c1 [NUCC-0201221] | 5.92 | – | –
33 | C#CCOc1ccc(COc2ccc(-c3cc(C(F)(F)F)n[nH]3)c(O)c2-c2cc(C(F)(F)F)cc(C(F)(F)F)c2)cc1 [NUCC-0201219] | 5.02 | – | –
34 | Cn1nc(C(F)(F)F)cc1-c1ccc(OCc2ccc(Cl)cc2)c(Br)c1O [NUCC-0198407] | 5.11 | – | –
35 | N#Cc1ccc(-c2c(OCc3ccc(Cl)cc3)ccc(-c3cc(C(F)(F)F)[nH]n3)c2O)cc1 [NUCC-0198391] | 5.47 | – | –
36 | CCc1ccc(Oc2c(-c3ccc(OCc4ccc(Cl)c(Cl)c4)cc3O)n[nH]c2C(F)(F)F)cc1 [NUCC-0196355] | 4.93 | – | –
37 | COc1ccc(-c2c(-c3ccc(OCc4ccc(Cl)cc4)cc3O)n[nH]c2C(F)(F)F)cc1OC [NUCC-0196283] | 5.64 | – | –
38 | Cn1nc(-c2ccc(OCCCNC(=O)OC(C)(C)C)c(-c3cncc(C(F)(F)F)c3)c2O)cc1C(F)(F)F [NUCC-0201656] | 5.26 | 4.74 | –
39 | Cn1nc(-c2ccc(OCc3ccc(Cl)cc3)c(-c3cncc(C#N)c3)c2O)cc1C(F)(F)F [NUCC-0201633] | 5.34 | 4.56 | –
40 | CCc1ccc(Oc2c(-c3ccc(O)cc3O)n[nH]c2C(F)(F)F)cc1 [NUCC-0198406] | 4.76 | – | –
41 | O=C(O)c1cc(-c2ccc(OCc3ccc(Cl)cc3)c(-c3cc(C(F)(F)F)cc(C(F)(F)F)c3)c2O)n[nH]1 [NUCC-0200973] | 4.17 | 4.53 | –
42 | C#CCC(N=[N+]=[N-])C(=O)Nc1ccc(COc2ccc(-c3cc(C(F)(F)F)n(C)n3)c(O)c2-c2cncc(C(F)(F)F)c2)cc1 (centres unmarked) [NUCC-0201699] | 4.61 | – | –
43 | Cn1nc(C(F)(F)F)cc1-c1ccc(OCc2ccc(Cl)cc2)c(-c2cccc(C#N)c2)c1O [NUCC-0198399] | 5.60 | – | 80.3%
44 | [N-]=[N+]=NCCOCCOCCOCC(=O)Nc1ccc(COc2ccc(-c3cc(C(F)(F)F)n[nH]3)c(O)c2-c2cc(C(F)(F)F)cc(C(F)(F)F)c2)cc1 [NUCC-0201199] | 5.52 | 4.90 | –
45 | CCc1ccc(Oc2c(-c3ccc(OCCc4ccc(Cl)cc4)cc3O)n[nH]c2C(F)(F)F)cc1 [NUCC-0196357] | 5.16 | – | –
46 | Cn1nc(C(F)(F)F)cc1-c1ccc(OCc2ccc(Cl)cc2)c(-c2cccc(C(F)(F)F)c2)c1O [NUCC-0200974] | 4.99 | – | –
47 | COc1ccc(COc2ccc(-c3cc(C(F)(F)F)n[nH]3)c(O)c2-c2cc(C(F)(F)F)cc(C(F)(F)F)c2)cc1 [NUCC-0201041] | 4.90 | 3.89 | –
48 | Oc1cc(OCc2ccc(Cl)cc2)ccc1-c1n[nH]cc1-c1cc(C(F)(F)F)cc(C(F)(F)F)c1 [NUCC-0198318] | 5.37 | – | –
49 | CCOc1ncc(C(F)(F)F)cc1-c1c(OCc2ccc(Cl)cc2)ccc(-c2cc(C(F)(F)F)n[nH]2)c1O [NUCC-0201039] | 4.87 | – | –
50 | CCCCCCOc1ccc(-c2cc(C(F)(F)F)n[nH]2)c(O)c1-c1cncc(C#N)c1 [NUCC-0201194] | 5.38 | 4.22 | –
51 | O=C1CCC(N2C(=O)c3cccc(OCc4cn(CCOCCOCCOCCOCC(=O)Nc5ccc(COc6ccc(-c7cc(C(F)(F)F)n[nH]7)c(O)c6-c6cc(C(F)(F)F)cc(C(F)(F)F)c6)cc5)nn4)c3C2=O)C(=O)N1 (centres unmarked) [NUCC-0201203] | 4.49 | – | –
52 | N#Cc1cncc(-c2c(OCc3ccc(Cl)cc3)ccc(-c3cc(C(F)(F)F)n[nH]3)c2O)c1 [NUCC-0201038] | 5.17 | 4.74 | –
53 | Oc1cc(OCc2ccc(Cl)cc2)ccc1-c1cc(C(F)(F)F)[nH]n1 [NUCC-0196313] | 5.38 | – | –

— patent US11142504B2, “Substituted heterocycles as c-MYC targeting agents” (Northwestern University, priority 2016, dated 2021)
